Results published in publication PMC11796312, “Multifunctional, Fluorene‐Based Modulator of Cholinergic and GABAergic Neurotransmission as a Novel Drug Candidate for Palliative Treatment of Alzheimer's Disease” (Angewandte Chemie (International Ed. in English), 2024).
Entries after “also recorded” stand apart in the source; their conditions may differ. Like-named read-outs stand apart in the source and are kept apart here.

How the values were obtained:
[1] = target: T1, human butyrylcholinesterase (hBuChE) (Homo sapiens, UniProt P06276); experiment: biochemical; details: means±SEM of at least three experiments
T1 construct: from human plasma was from Vivonics (Bedford, MA, USA); purchased Vivonics (Bedford, MA, USA); host or cells: human plasma
T1 sequence (P06276 29-602): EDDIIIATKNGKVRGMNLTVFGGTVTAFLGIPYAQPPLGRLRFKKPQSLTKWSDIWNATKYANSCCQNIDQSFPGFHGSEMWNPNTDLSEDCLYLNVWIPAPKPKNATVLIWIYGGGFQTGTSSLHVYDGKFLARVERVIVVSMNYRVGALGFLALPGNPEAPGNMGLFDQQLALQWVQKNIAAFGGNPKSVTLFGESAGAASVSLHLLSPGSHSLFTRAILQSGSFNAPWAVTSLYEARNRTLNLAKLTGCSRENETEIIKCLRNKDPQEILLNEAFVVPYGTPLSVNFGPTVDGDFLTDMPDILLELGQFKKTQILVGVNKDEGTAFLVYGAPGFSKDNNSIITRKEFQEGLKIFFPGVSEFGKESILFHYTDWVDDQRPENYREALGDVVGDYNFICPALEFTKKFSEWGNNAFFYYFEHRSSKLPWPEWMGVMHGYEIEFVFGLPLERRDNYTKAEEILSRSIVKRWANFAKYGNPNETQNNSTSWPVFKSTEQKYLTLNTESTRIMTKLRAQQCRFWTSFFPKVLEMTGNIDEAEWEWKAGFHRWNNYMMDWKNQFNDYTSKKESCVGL

[2] = target: T2, human serotonin 5-HT1A receptor (Homo sapiens, UniProt P08908); experiment: cAMP 5-HT1A functional assay; type: cell-based
T2 construct: host or cells: CHO-K1
T2 sequence (P08908 whole entry): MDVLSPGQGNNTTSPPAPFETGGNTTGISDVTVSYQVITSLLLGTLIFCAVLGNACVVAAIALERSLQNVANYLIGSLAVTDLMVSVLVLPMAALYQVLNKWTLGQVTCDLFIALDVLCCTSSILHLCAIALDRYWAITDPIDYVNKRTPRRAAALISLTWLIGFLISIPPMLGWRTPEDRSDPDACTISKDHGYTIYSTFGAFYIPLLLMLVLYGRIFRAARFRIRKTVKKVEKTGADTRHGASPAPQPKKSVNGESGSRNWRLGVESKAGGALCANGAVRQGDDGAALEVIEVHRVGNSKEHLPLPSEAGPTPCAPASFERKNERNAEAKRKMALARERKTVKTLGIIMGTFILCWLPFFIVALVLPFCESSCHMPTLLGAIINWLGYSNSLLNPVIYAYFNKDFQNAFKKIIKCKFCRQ
Description: Functional assays for 5-HT1A receptor
Tested and reference compounds were dissolved in DMSO to the concentration of 10 mM.
Dilutions were prepared in a 96-well microplate in assay buffers. For 5-HT1A receptors,
adenylyl cyclase activity was determined using cryopreserved CHO-K1 cells expressing the
The final concentration of DMSO in the test solutions was
The functional assay was performed with the CHO-K1 cells with expression of the 5-HT1A
The cells were cultured under selective conditions (400 μg/mL Geneticin G418)
(PerkinElmer). Thawed cells were resuspended in stimulation buffer (HBSS, 5 mM HEPES,
The same volume (10 μL) of cell
suspension was added to tested compounds with 10 μM forskolin. Samples were loaded onto
a white opaque half-area 96-well microplate. Cell stimulation was performed for 40 min at
room temperature. After incubation, cAMP measurements were performed with homogeneous
time-resolved fluorescence resonance energy transfer (TR-FRET) immunoassay using the
LANCE Ultra cAMP kit (PerkinElmer, USA). Ten microliters of EucAMP Tracer Working
Solution and 10 μL of ULight-anti-cAMP Tracer Working Solution were added, mixed, and
incubated for 1 h. The TR-FRET signal was read on an EnVision microplate reader
(PerkinElmer, USA). Emax values were defined as the ligand response expressed as a […]
which 50% of its maximal response was measured.

[3] = test system: mouse microglial cells SIM-A9; experiment: MTT cell viability assay, SIM-A9; type: cell-based; details: Mus musculus, SIM-A9, 24 h; read-out: IC50 (MTT) ± SEM
Excerpt: Human neuroblastoma cells SH-SY5Y and mouse microglial cells SIM-A9 were used to evaluate cell viability, intracellular RONS, and malondialdehyde (MDA; CAS No. 542–78-9).
SH-SY5y cells were cultivated in Dulbecco's modified Eagle's medium (DMEM; Biosera, Nuaille, France) supplemented with 10% fetal bovine serum (Biosera) and 1% penicillin-streptomycin antibiotic solution (Sigma-Aldrich, St. Louis, MO, USA). The culture medium for SIM-A9 cells was further supplemented with donor horse serum (Biosera). The cells were incubated at 37 °C in a CO2 incubator (BINDER CO2 incubator CB 160, Tuttlingen, Germany) and routinely passaged by trypsinization at 75 –85% confluence.
Colorimetric Cell Viability Assay
The toxicological indices IC 50 used in the present study were measured utilizing 3-(4,5-dimethylthiazol-2-yl)-2,5-diphenyl-tetrazolium bromide (MTT) reduction assay after (1 picture or pasted object on this page, not shown here)
24 h incubation with tested compounds. […]
incubation, the cultivation medium containing serially diluted substances was aspirated and replaced with a fresh medium containing MTT at a concentration of 0.5 mg/mL and subsequently incubated at 37 °C for 1 h. […] Cell viability was assessed spectrophotometrically by the amount of formazan produced. Absorbance was measured at 570 nm with 650 nm reference wavelength on Spark (Tecan Group Ltd, Switzerland). […]

ICR-CD1 mice = experiment: Dose safety verification after oral (i.g.) administration; type: in vivo; details: 10 mg/kg i.g.
Description: phosphatase (ALP), amylase, and lactate dehydrogenase (LDH) were measured in the accredited biochemical laboratory of the Department of Clinical Biochemistry and Diagnostics, University Hospital, Hradec Kralove, Czech Republic. Statistical data analysis was performed through IBM SPSS Statistics version 26 (IBM, Armonk, NY, USA) using the Kolmogorov-Smirnov and Shapiro-Wilk tests to test data normality. Due to normally distributed data, the Student´s t-test was used to assess the differences compared with the control group (p ≤ 0.05).
Samples of the liver and kidney were used for standard histopathological examination. Organs were fixed with 10% neutral buffered formalin (Bamed s.r.o., Ceske Budejovice, Czech Republic), histologically processed, and stained with hematoxylin and eosin (both Merck) according to Pejchal et al.[41] The histopathological changes were evaluated using a BX-51 microscope (Olympus, Tokyo, Japan).
Dose safety verification after oral administration
Mice were randomly assigned to the experimental groups of two males and two females per one selected dose (10 mg/kg) of 6 to verify its safety. 6 was administered by a probe (i.g., 0.1 mL/10 g of animal weight; 1% Tween 80). Treated animals were intensively observed for signs of toxicity; then, the animals were subjected to macroscopic examination. The blood was collected for biochemical analysis of glucose, urea, and creatinine concentration and the activity of alanine transaminase (ALT), aspartate transaminase (AST), gamma-glutamyl transferase (GGT), alkaline phosphatase (ALP), amylase, and creatine kinase (CK). Selected organs (terminal esophagus, stomach, duodenum, pancreas, kidney, and liver) were collected for histopathologic examination. […]

[4] = Stability in plasma (UHPLC-MS method validation); type: in vitro ADME; details: rat plasma
Excerpt: UHPLC-MS method for pharmacokinetics study
Ultra high-performance liquid chromatography system consisting of Ultimate 3000 RS pump Dionex (Thermo Scientific, San Jose, CA, USA) coupled with high-resolution mass spectrometer with orbitrap analyzer (Q Exactive Focus, Thermo Scientific, San Jose, CA, USA) was used in quantitative analyses of 6 in plasma and brain homogenate. According to the EMA[43] and FDA[42] guidelines on Bioanalytical method validation, the method was fully validated for plasma and partially for brain homogenate. All the evaluated parameters met the […]
Table S12. Summary of validation results (precision and accuracy) in plasma for five different concentrations - limit of quantitation(LLOQ), low (QC A), mid (QC B), high (QC C) a dilution (QC D) level. […]
Stability evaluation in rat plasma as deviation from the reference value (100%)

## O[C@H](CNCC1CC1)[C@H](Cc1ccccc1)NC1c2ccccc2-c2ccccc21 [Compound 6]
[1]
  IC50: 0.21 ± 0.01 µM
[2]; read-out: 5-HT1A agonist mode E max % [10^-5 M]
  Emax: 15%
[2]; read-out: 5-HT1A antagonist mode E max %
  Emax: 16%
[3]
  IC50: 6.46 ± 0.09 µM
ICR-CD1 mice
  Necropsy: no pathology of internal organs
  signs of toxicity: no signs of poisoning occurred; also recorded: no signs of toxicity occurred
ICR-CD1 mice; 48 h
  ALP, plasma: 61.2 ± 6.2 U/L
  ALT, plasma: 30.0 ± 1.6 U/L
  AST, plasma: 51.3 ± 7.0 U/L
  Amylase, plasma: 2630 ± 110 U/L
  CK, plasma: 123 ± 25 U/L
  Glucose, plasma: 205 ± 16 mg/dL
  Urea, plasma: 38.6 ± 2.5 mg/dL
  blood biochemistry vs control: no significant changes; also recorded: lack of significant changes in blood biochemistry
ICR-CD1 mice; liver, kidney, esophagus, stomach, duodenum, pancreas
  histopathological examinations: no tissue damage
[4]; QC B (33,50 ng/mL), vs reference value 100%
  Autosampler stability % (24h): 97,6 ± 1,5%
[4]; QC B
  Freeze-thaw stability % (3 cycles): 95,8% ± 4,0
  Long-term stability % (3 month): 109,9 ± 0,5%
[4]; QC C (452,73 ng/mL)
  Autosampler stability % (24h): 94,6 ± 2,5%
[4]; QC C
  Freeze-thaw stability % (3 cycles): 102,0 ± 4,7%
  Long-term stability % (3 month): 105,7 ± 2,2%
